Key:
S. aureus 209P strain = assay: Antibacterial activity in liquid medium; type: cell-based, Staphylococcus aureus; settings: for Peptide Efficacy in Liquid Medium after 15 h of Incubation: S. aureus 209P strain, Mueller–Hinton Broth, two independent experiments; for concentration at which inhibition of bacterial growth was observed (Figure 1): S. aureus 209P, liquid medium, 15 h, gentamicin positive control
Experimental: (§1) We utilized various strains of microorganisms in this study. […] Bacillus cereus strain IP 5832 (susceptible), Pseudomonas aeruginosa strains ATCC 28753 (susceptible) and 2943 (resistant), and Escherichia coli strains K12 and MG1655 (both susceptible) were also utilized in our experiments.
(§2) S. aureus (strains 209P and 129B), MRSA (strains ATCC 43300 and SA 180-F), B. cereus (strain IP 5832), P. aeruginosa (strains ATCC 28753 and 2943), and E. coli (strains K12 and MG1655) were cultured on Mueller–Hinton Broth (MHB).
(§3) Statistical analysis was conducted using the SigmaPlot v15 software package (SPSS Inc., Chicago, IL, USA). Each experiment was repeated at least twice (n ≥ 2). Data are presented as mean ± standard deviation (M ± SD). Statistical significance was assessed using Student’s t-test and analysis of variance (ANOVA) in the tests of the antibacterial activity of the peptides. The confidence interval value of 0.95 was used, corresponding to an alpha value of 0.05. Statistically significant decreases in optical density compared to the negative control were considered for specific peptide concentrations with p-values below 0.05.

S. aureus 129B strain = assay: Antibacterial activity in liquid medium; type: cell-based, Staphylococcus aureus; settings: for Peptide Efficacy in Liquid Medium after 24 h of Incubation: S. aureus 129B strain (clinical isolate), Mueller–Hinton Broth, two independent experiments
Experimental: as §1, §2, §3

[1] = tested on: P. aeruginosa 2943 strain; assay: Antibacterial activity in liquid medium; type: cell-based, Pseudomonas aeruginosa; settings: for antimicrobial effect compared to the negative control (Figure 3): P. aeruginosa 2943, liquid medium, 24 h; for Peptide Efficacy in Liquid Medium after 24 h of Incubation: P. aeruginosa 2943 strain (resistant), Mueller–Hinton Broth, two independent experiments
Experimental: as §1, §2, §3

P. aeruginosa ATCC 28753 = assay: Antibacterial activity in liquid medium; type: cell-based, Pseudomonas aeruginosa; settings: for Peptide Efficacy in Liquid Medium after 15 h of Incubation: Mueller–Hinton Broth, two independent experiments; for concentrations of peptides suppressing the growth of bacteria compared to the negative control (Figure 3): liquid medium, 15 h
Experimental: as §1, §2, §3

MRSA SA 180-F strain = assay: Antibacterial activity in liquid medium; type: cell-based, methicillin-resistant Staphylococcus aureus; settings: MRSA SA 180-F strain (clinical isolate), Mueller–Hinton Broth, two independent experiments
Experimental: as §1, §2, §3

MRSA ATCC 43300 strain = assay: Antibacterial activity in liquid medium; type: cell-based, methicillin-resistant Staphylococcus aureus; settings: for Peptide Efficacy in Liquid Medium after 15 h of Incubation: MRSA ATCC 43300 strain, Mueller–Hinton Broth, two independent experiments
Experimental: as §1, §2, §3

BT474 cells = settings: 100 µg/mL, both with and without pre-incubation, 96 h
Experimental: To analyze the cytotoxic effect, cells after incubation with peptides were stained with calcein AM (stains living cells) and propidium iodide (stains dead cells).
Analysis of the cytostatic effect was performed on the basis of the distribution of cells by phases of the cell cycle and mitotic activity.
The peptides were pre-incubated for 12 h in DMEM medium without serum in a CO2 incubator. After the incubation period, serum was added to the medium to a final concentration of 10%, and the preparation was added dropwise onto the cells. The cytotoxic effects of peptides against eukaryotic cells (human fibroblasts and BT474) were subsequently assessed using the same method as in the previous study.

human skin fibroblasts = assay: Toxicity of peptides against human fibroblasts (calcein AM / propidium iodide; cell cycle); type: cell-based; settings: both with and without pre-incubation, 96 h; for number of dead cells: calcein AM / propidium iodide
Experimental: The peptides were pre-incubated for 12 h in DMEM medium without serum in a CO2 incubator. After the incubation period, serum was added to the medium to a final concentration of 10%, and the preparation was added dropwise onto the cells. The cytotoxic effects of peptides against eukaryotic cells (human fibroblasts and BT474) were subsequently assessed using the same method as in the previous study [62].

E. coli MG1655 strain = assay: Antibacterial activity in liquid medium; type: cell-based, Escherichia coli; settings: for concentration with antimicrobial activity / effective concentration (text to Figure 4): E. coli MG1655, liquid medium, 24 h; for Peptide Efficacy in Liquid Medium after 24 h of Incubation: E. coli MG1655 strain, Mueller–Hinton Broth, two independent experiments
Experimental: as §1, §2, §3

E. coli K12 strain = assay: Antibacterial activity in liquid medium; type: cell-based, Escherichia coli; settings: for concentration with antimicrobial activity / effective concentration (text to Figure 4): E. coli K12, liquid medium, 15 h; for Peptide Efficacy in Liquid Medium after 15 h of Incubation: E. coli K12 strain, Mueller–Hinton Broth, two independent experiments
Experimental: as §1, §2, §3

[2] = tested on: S. aureus (strain 209P), MRSA (strain ATCC 43300), B. cereus (strain IP 5832), P. aeruginosa (strain ATCC 28753), and E. coli (strain K12); assay: Antimicrobial effect compared with gentamicin, panel of Figure 5; type: cell-based; settings: Figure 5 panel; Mueller–Hinton Broth; 15 h; two independent experiments
Experimental: The antibiotic gentamicin sulfate was used as a positive control. The concentration of gentamicin was 100 µM. Cell cultures in a liquid medium (Mueller–Hinton Broth) served as a negative control. Error bars show standard errors. Number of independent experiments is two. #—for significant differences with negative control p < 0.05.
as §2, §3

B. cereus IP 5832 strain = assay: Antibacterial activity in liquid medium; type: cell-based, Bacillus cereus; settings: Mueller–Hinton Broth, two independent experiments
Experimental: as §1, §2, §3

[3] = POPE:POPG bilayer; 0.1 M KCl, pH 7.4; subthreshold peptide concentrations (20 µg/mL)
Text: The effects of peptide R44K^S on the ionic permeability of planar lipid bilayers composed of an equimolar mixture of POPE and POPG mimicking target bacterial cell membranes was examined. The example of the time dependence of the transmembrane current produced by a subsequent one-side addition of R44K^S into the bathing solution (0.1 M KCl, pH 7.4) is shown in Figure 7A.
The method of recording the transmembrane current under voltage-clamp conditions was used to study the effect of a synthetic peptide on a lipid membrane. Planar lipid bilayers were formed by the Montal and Mueller technique on an aperture of 50 µm diameter in a 10 µm thick Teflon film separating two compartments of Teflon chambers. Each compartment contained 0.1 M KCl and 10 mM HEPES at pH 7.4. Hexadecane was used for the aperture pretreatment. […]
Ag/AgCl electrodes with 1.5% agarose/2 M KCl bridges were used to apply the transmembrane voltage (V) and measure the current flowing through the bilayer (I). […] Data were digitized by a Digidata 1550A and analyzed using pClamp 10.7 (Molecular Devices, LLC, Orleans Drive, Sunnyvale, CA, USA) and Origin 7.0 (OriginLab Corporation, Northampton, MA, USA). […]

Substance | Peptide Efficacy in Liquid Medium after 15 h of Incubation (S. aureus 209P strain) | concentration at which inhibition of bacterial growth was observed (Figure 1) (S. aureus 209P strain) | Peptide Efficacy in Liquid Medium after 24 h of Incubation (S. aureus 129B strain) | antimicrobial effect compared to the negative control (Figure 3) [1] | Peptide Efficacy in Liquid Medium after 24 h of Incubation [1] | Peptide Efficacy in Liquid Medium after 15 h of Incubation (P. aeruginosa ATCC 28753) | concentrations of peptides suppressing the growth of bacteria compared to the negative control (Figure 3) (P. aeruginosa ATCC 28753) | Peptide Efficacy in Liquid Medium after 24 h of Incubation (MRSA SA 180-F strain) | Peptide Efficacy in Liquid Medium after 15 h of Incubation (MRSA ATCC 43300 strain) | cytotoxic effect (human skin fibroblasts; 100 µg/mL) | concentration with antimicrobial activity / effective concentration (text to Figure 4) (E. coli MG1655 strain) | Peptide Efficacy in Liquid Medium after 24 h of Incubation (E. coli MG1655 strain) | concentration with antimicrobial activity / effective concentration (text to Figure 4) (E. coli K12 strain) | Peptide Efficacy in Liquid Medium after 15 h of Incubation (E. coli K12 strain) | further results
VVVHINGGKFGGGGSRQIKIWFQNRRMKWKK [V31K^S, commercial product] | >12 µM, 209P strain | not demonstrated | >276.8 µM, 129B strain | did not exhibit antimicrobial effects | >276.8 µM, 2943 strain | >12 µM, ATCC 28753 | 6 µM | >276.8 µM, SA 180-F strain | >12 µM, ATCC 43300 strain | no cytotoxic effect | 276.8 µM | >276.8 µM, MG1655 strain | did not exhibit antimicrobial activity | >12 µM, K12 strain | complete inhibition of bacterial growth (Figure 1) (S. aureus 129B strain; S. aureus 129B, liquid medium, 24 h): not demonstrated; cytotoxic effect (BT474 cells): no cytotoxic effect
RKKRRQRRRGG-Sar-GVVVHI-X-GGKF-NH2 [R23F^S*, Peptide with TAT fragment and modified amyloidogenic fragment of S. aureus S1 protein, C-terminal amide] | 6 µM | – | 379.8 µM | – | 38 µM | 6 µM | – | 379.8 µM | 12 µM | – | – | 379.8 µM | – | 3 µM | number of dead cells (human skin fibroblasts; 50 µg/mL): 11 ± 3%; number of dead cells (human skin fibroblasts; 100 µg/mL): 12 ± 3%; concentrations with antimicrobial effect comparable to gentamicin (100 μM) against all bacteria [2]: 24 to 48 µM; Peptide Efficacy in Liquid Medium after 15 h of Incubation (B. cereus IP 5832 strain): 3 µM
RKKRRQRRRGGGGVVVHINGGKFGGGGSRQIKIWFQNRRMKWKK [R44K^S, Unmodified peptide: TAT fragment, amyloidogenic fragment and Antp fragment; commercial product] | 6 µM | 6 to 12 µM | >194.4 µM, 129B strain | did not exhibit antimicrobial effects | >194.4 µM, 2943 strain | 3 µM | 1.5 µM | >194.4 µM, SA 180-F strain | 12 µM | no cytotoxic effect | 19.4 µM | 194.4 µM | 6 µM | 6 µM | concentration at which inhibitory effect / complete suppression of growth was observed (text to Figure 2) (MRSA ATCC 43300 strain; MRSA ATCC 43300, liquid medium, 15 h): 12 µM; single pore conductance [3]: 10–30 pS
